Measured values reported in patent US20240115554A1, “METHODS FOR TREATING OBSTRUCTIVE HYPERTROPHIC CARDIOMYOPATHY” (Cytokinetics, Incorporated, priority 2022, published 2024).
“Also recorded” adds a separate entry of the source.

What was measured:
[1] = test system: patients with symptomatic oHCM; assay: Open-label extension: safety and tolerability; type: in vivo, human; conditions: for Patients with TEAE Leading to Dose Reduction / Patients with TEAE Leading to Drug Interruption / Patients with at Least One Related TEAE / Patients with at Least One Severe TEAE / Patients with at Least One TEAE / Patients with at Least One TESAE: open-label extension, preliminary safety
Procedure: An open-label extension clinical trial of aficamten in patients with symptomatic oHCM was initiated.
An open-label extension clinical trial of aficamten in patients with symptomatic oHCM was initiated. The treatment duration is anticipated to be multiple years.
Safety and tolerability are evaluated by (i) patient incidence of adverse events, (ii) patient incidence of serious adverse events, (iii) patient incidence of LVEF <50%.

cardiac myosin = cardiac myosin (Homo sapiens, UniProt P12883); assay: Preclinical models: myocardial contractility; conditions: preclinically in vitro and in vivo
Excerpt: This mechanism of action may be therapeutically effective in conditions characterized by excessive hypercontractility, such as HCM (e.g., obstructive HCM, also referred to as oHCM).

[2] = test system: patients with symptomatic obstructive HCM (oHCM); assay: Phase 2 trial: NYHA functional class; type: in vivo, human
Excerpt: (§1) Secondary results from the clinical study included data from Cohort 3 (n=13). […] Overall, treatment duration for each patient in the study was 10 weeks with an echocardiogram conducted 2 weeks after the last dose. Efficacy endpoints included resting and provoked LVOT gradients, NYHA class, and NT-proBNP.

[3] = test system: patients with symptomatic oHCM; assay: Open-label extension: cardiac biomarkers (NT-proBNP, hs-cTnI); type: in vivo, human; conditions: Week 48
Procedure: At Weeks 4, 6, 12, and every 12 weeks thereafter, each patient has an echocardiogram or truncated echocardiogram following administration of their dose (a truncated echocardiogram at weeks 4 and 6; and an echocardiogram at week 12 and every 12 weeks thereafter) to determine whether additional dose titration is needed (see Table 21 and Table 22). Patient reported outcomes, laboratory assessments, measurements of NT-proBNP, hs-cTnI, and other biomarkers are performed at week 12 and every 12 weeks thereafter. Ambulatory cardiac monitoring is performed on weeks 48, 96, 144, 192 and 240 Cardiac magnetic resonance is monitored at weeks 48, 144 and 240. If a patient develops an LVEF <40% after the Week 2 visit, a repeat echocardiogram may be performed to confirm the initial finding (preferably within 24 hours). If the echocardiography findings are confirmed, the patient will undergo a ≥2-day drug holiday.

[4] = test system: patients with symptomatic obstructive HCM (oHCM); assay: Phase 2 trial: safety and tolerability
Excerpt: Seventeen investigative sites in North America and Europe screened for patients to enroll in Cohorts 1 and 2.
The first two cohorts (Cohort 1 and Cohort 2) excluded patients receiving disopyramide. Cohort 3 included patients receiving disopyramide. […] Overall, the treatment duration was 10 weeks with a 4-week follow-up period after the last dose.

[5] = test system: patients with symptomatic obstructive HCM (oHCM); assay: Phase 2 trial: cardiac biomarkers (NT-proBNP, hs-troponin); type: in vivo, human
Procedure: as §1, with “Echocardiograms obtained every 2 weeks and 2 weeks after the last dose were analyzed for several key structural and physiologic metrics and N-terminal prohormone of brain natriuretic peptide (NT-proBNP). Secondary” for “Secondary”

[6] = test system: patients with symptomatic oHCM; assay: Open-label extension: NYHA functional class; type: in vivo, human
Procedure: NYHA Functional Classification is recorded. When available, patients will complete patient-reported outcome (PRO) questionnaires: Kansas City Cardiomyopathy Questionnaire (KCCQ), Seattle Angina Questionnaire-7 (SAQ-7), EuroQol 5-Dimension 5-Level Instrument (EQ-5D-5L), Patient's Global Impression of Change (PGI-C) Scale, Clinical Global Impressions (CGI) Scale, SF-36 Physical Functioning Subscale (SF-36 PFS) as specified in Table 23.

[7] = pooled aficamten Cohorts 1 and 2
[8] = Cohort 1, 21 randomized 2:1 aficamten (5, 10, 15 mg once daily) or placebo, 10 weeks
[9] = Cohort 2, 20 randomized 2:1 aficamten (10, 20, 30 mg once daily) or placebo, 10 weeks
[10] = Cohort 3, 13 patients, aficamten (5, 10, 15 mg once daily) on top of disopyramide, 10 weeks
[11] = Total, Cohorts 1-3, 54 patients
[12] = by week 48, Examples 3a and 3b interim

Chain of cardiac myosin (P12883 whole entry): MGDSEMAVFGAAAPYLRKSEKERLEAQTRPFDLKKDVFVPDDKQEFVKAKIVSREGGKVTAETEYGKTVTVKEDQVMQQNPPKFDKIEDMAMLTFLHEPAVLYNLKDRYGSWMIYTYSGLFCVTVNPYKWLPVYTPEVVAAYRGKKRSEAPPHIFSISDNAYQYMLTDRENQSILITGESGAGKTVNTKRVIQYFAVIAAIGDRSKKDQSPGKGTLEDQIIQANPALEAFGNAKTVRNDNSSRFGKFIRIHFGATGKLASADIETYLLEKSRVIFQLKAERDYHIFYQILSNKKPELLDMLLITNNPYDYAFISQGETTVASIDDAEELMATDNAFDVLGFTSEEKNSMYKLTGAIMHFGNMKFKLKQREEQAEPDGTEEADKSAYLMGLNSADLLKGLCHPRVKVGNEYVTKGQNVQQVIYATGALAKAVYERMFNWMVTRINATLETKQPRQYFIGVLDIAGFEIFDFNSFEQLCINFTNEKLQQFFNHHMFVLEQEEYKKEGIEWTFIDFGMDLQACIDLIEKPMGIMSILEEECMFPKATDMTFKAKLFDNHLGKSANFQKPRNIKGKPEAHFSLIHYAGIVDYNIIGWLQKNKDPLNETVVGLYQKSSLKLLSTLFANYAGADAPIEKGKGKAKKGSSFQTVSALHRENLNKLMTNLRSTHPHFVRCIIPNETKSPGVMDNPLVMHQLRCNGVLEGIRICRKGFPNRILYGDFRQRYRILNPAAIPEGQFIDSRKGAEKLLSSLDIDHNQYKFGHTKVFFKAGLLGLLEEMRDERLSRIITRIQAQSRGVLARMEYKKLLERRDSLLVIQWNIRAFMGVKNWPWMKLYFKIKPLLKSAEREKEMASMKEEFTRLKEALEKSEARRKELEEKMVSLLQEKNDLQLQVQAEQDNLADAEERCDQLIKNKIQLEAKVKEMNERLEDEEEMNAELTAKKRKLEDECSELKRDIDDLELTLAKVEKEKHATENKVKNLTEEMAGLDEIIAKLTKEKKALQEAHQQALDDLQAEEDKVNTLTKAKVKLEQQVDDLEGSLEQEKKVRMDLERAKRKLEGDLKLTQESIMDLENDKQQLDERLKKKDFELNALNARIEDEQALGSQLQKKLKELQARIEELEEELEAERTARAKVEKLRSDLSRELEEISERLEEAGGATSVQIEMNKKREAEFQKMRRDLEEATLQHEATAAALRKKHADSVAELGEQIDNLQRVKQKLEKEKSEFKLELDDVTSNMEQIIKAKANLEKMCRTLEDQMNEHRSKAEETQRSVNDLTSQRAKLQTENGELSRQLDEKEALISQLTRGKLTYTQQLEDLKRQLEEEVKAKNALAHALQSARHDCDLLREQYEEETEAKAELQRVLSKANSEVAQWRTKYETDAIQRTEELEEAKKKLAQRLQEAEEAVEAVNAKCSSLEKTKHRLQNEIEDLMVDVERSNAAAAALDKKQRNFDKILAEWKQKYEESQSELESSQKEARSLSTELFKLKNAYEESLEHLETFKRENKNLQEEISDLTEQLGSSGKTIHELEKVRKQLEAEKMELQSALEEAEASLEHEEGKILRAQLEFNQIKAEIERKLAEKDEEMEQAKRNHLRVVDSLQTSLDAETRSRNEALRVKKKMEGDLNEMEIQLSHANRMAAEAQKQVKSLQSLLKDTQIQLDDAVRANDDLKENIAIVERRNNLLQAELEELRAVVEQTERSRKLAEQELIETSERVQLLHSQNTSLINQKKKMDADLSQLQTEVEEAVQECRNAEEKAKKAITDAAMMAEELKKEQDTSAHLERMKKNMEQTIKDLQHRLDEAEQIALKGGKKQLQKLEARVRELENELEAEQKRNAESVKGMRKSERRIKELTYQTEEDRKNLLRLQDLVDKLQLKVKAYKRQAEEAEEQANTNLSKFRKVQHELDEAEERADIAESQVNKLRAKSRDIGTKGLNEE
Chain of cardiac myosin (P08590 whole entry partner): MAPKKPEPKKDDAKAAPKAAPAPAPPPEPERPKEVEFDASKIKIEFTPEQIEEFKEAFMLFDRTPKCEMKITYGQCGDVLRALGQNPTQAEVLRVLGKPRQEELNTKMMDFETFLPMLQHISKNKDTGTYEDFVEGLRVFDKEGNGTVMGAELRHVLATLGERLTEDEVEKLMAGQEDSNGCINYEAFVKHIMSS
Chain of cardiac myosin (P10916 whole entry partner): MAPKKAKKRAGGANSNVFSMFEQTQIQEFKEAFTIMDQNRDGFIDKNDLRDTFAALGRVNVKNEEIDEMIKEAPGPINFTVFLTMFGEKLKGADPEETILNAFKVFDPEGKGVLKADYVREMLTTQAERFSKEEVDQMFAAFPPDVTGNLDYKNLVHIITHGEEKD

Which results are given for CCc1nc(-c2ccc3c(c2)CC[C@H]3NC(=O)c2cnn(C)c2)no1 [aficamten, (R)—N-(5-(5-ethyl-1,2,4-oxadiazol-3-yl)-2,3-dihydro-1H-inden-1-yl)-1-methyl-1H-pyrazole-4-carboxamide]?
safety events deemed related to aficamten therapy by investigators ([1]; BTR/W analysis): no safety events deemed related to aficamten therapy; LVEF during recurrent alcohol induced atrial fibrillation ([1]; one patient on 15 mg): 47%; events of LVEF <50% attributed to aficamten ([1]; open label extension): no events of LVEF <50% attributed to aficamten; also recorded: no patients experienced aficamten related reduction in LVEF <50%; also recorded: no instances of systolic dysfunction (LVEF <50%) attributed to aficamten; tolerability ([1]; open label extension, Example 3a): well tolerated; Patients with TEAE Leading to Dose Reduction ([1]; N = 38): (5%); Patients with TEAE Leading to Drug Interruption ([1]; N = 38): (3%); Patients with at Least One Related TEAE ([1]; N = 38): (21%); Patients with at Least One Severe TEAE ([1]; N = 38): (3%); Patients with at Least One TEAE ([1]; N = 38): (74%); Patients with at Least One TESAE ([1]; N = 38): (5%); Patients with TEAE Leading to Dose Reduction ([1]; N = 38, number of patients): 2; Patients with TEAE Leading to Drug Interruption ([1]; N = 38, number of patients): 1; Patients with at Least One Related TEAE ([1]; N = 38, number of patients): 8; Patients with at Least One Severe TEAE ([1]; N = 38, number of patients): 1; Patients with at Least One TEAE ([1]; N = 38, number of patients): 28; Patients with at Least One TESAE ([1]; N = 38, number of patients): 2; effect on left ventricular contractility (cardiac myosin): reduced measures of left ventricular contractility; patients with improvement in NYHA class by one or more classes ([2]; Cohort 2): 64%; NYHA improvement in baseline class III patients ([2]; Cohort 3): all baseline NYHA class III patients improved by ≥1 class; patients with ≥1 NYHA class improvement ([2]; Cohort 3 (Eleven patients)): 85%; patients converted from class III to class II or I ([2]; Cohorts 1 and 2): 7 patients; patients who improved from NYHA class III to I [2, 7]: one; patients who improved from NYHA class III to II [2, 7]: 6 patients; patients with change in NYHA class of one or more classes ([2]; pooled aficamten Cohorts 1 and 2 (15 of 28)): 53%; NT pro-BNP reduction from baseline [3]: 70%; patients with LVEF <50% ([4]; Cohort 1): No patients; Patients with TEAEs leading to drug interruption or termination [4, 8]: 0 N; Patients with fatal TEAEs [4, 8]: 0 N; TEAE of LVEF <50% (Core Lab) [4, 8]: 0 N; patients with transient LVEF reduction to <50% requiring down titration ([4]; Cohort 2, 20 mg): one patient; Patients with TEAEs leading to drug interruption or termination [4, 9]: 0 N; Patients with TESAEs [4, 9]: 0 N; Patients with fatal TEAEs [4, 9]: 0 N; changes in QTc interval or vital signs ([4]; Cohort 3): no significant changes in QTc interval, or vital signs; moderate adverse events recorded ([4]; Cohort 3): six; patients with LVEF <50% ([4]; Cohort 3): No patients experienced LVEF <50%; serious adverse events, dose interruptions, discontinuations ([4]; Cohort 3): no serious adverse events attributed to treatment; also recorded: no dose interruptions, treatment discontinuations, or serious adverse events; Patients with TEAEs leading to drug interruption or termination [4, 10]: 0 N; Patients with TESAEs [4, 10]: 0 N; Patients with fatal TEAEs [4, 10]: 0 N; TEAE of LVEF <50% (Core Lab) [4, 10]: 0 N; adverse event of asymptomatic atrial fibrillation ([4]; Cohort 3, patient with known prior history): One; interruptions or discontinuations of treatment ([4]; Cohorts 1 and 2): no treatment interruptions; also recorded: No interruptions or discontinuations; new cases of atrial fibrillation ([4]; Cohorts 1 and 2): No new cases of atrial fibrillation; severity of adverse events ([4]; Cohorts 1 and 2): mild or moderate; treatment related serious adverse events ([4]; Cohorts 1 and 2): No serious adverse events were attributed to aficamten; also recorded: no treatment related serious adverse events; reversibility of LVEF effect after end of treatment ([4]; Phase 2 cohorts): returned towards baseline within two weeks after the end of treatment; also recorded: returned to baseline after the 2-week washout; Patients with TEAEs leading to drug interruption or termination [4, 11]: 0 N; Patients with fatal TEAEs [4, 11]: 0 N; patients with at least some reduction in NT-proBNP levels ([5]; 25 out of the 27 patients on aficamten): 93%; proportional reduction in NT-proBNP levels compared to placebo ([5]; week 10): 62%; patients with worsening in NYHA class from baseline ([6]; Example 3a, preliminary): No patients; patients with NYHA class improvement of one or more classes ([6]; Example 3a, up to 6 months): about 80%; patients with NYHA FC worsening [6, 12]: none; patients with ≥1 NYHA FC improvement [6, 12]: 88%; patients in NYHA class II ([6]; week 12 (baseline 47%), Example 3a): 52%; patients in NYHA class III ([6]; week 12 (baseline 53%), Example 3a): 7%; patients in NYHA class I ([6]; week 12, Example 3a): 41%; patients in NYHA class I ([6]; week 24, Example 3a): 56%; patients in NYHA class II ([6]; week 24, Example 3a): 39%; patients in NYHA class III ([6]; week 24, Example 3a): 6%
